# According to patent US11607443B2, “Therapeutic peptides” (UNIVERSITE TOULOUSE III-PAUL SABATIER, priority 2016, dated 2023):
# Experiments:
# miR16-1 = assay: Accumulation of miR16-1 in mesenchymal stem cells by RT-qPCR; assay type: cell-based, human; details: 10 μM for 3 h, MSCs from three patients, normalized to PPIA; FIG. 16
# Description: The mesenchymal stem cells were treated with 10 μM of miPEP//15a-16-1-TAT, treated with 10 μM of control peptide (ScmiPEP//21-1) or untreated (NT) for 3 hours. The amount of miR16-1 precursor in cells has been measured by quantitative RT-PCR. The measurement of the amount of miR16-1 precursor was normalized with respect to the PPIA household gene. Analyzes and statistics were performed with the Mann-Withney test (p-value: * p<0.05; ** p<0.01 and *** p<0.001).
# The effect of miPEP 15a-16-1 on miR16-1 accumulation was analyzed in mesenchymal stem cells (MSCs). The experiments were carried out with a fragment of 10 amino acids respectively corresponding to the N-terminal portion of the miPEP 15a-16-1 (=fragment miPEP//15 a-16-1).
# MSCs from three different patients were treated with 10 μM of miPEP//15a-16-1 fused to TAT peptide (miPEP//15a-16-1-TAT) for 3 h, then the amount of miR16-1 was measured by RT-qPCR.
# Peptides were synthesized by Smartbioscience and dissolved at 2 mM in water.
# The MSCs were seeded in wells of 12-well plates at 72,900 cells per well under 1 mL of PROLIF medium. The cells were then incubated for 72 h at 37° C. in a humid atmosphere with 5% CO2. […]
# The amount of miRNAs precursors in cells treated or not treated with miPEP was evaluated by quantitative RT-PCR with the SsoFast EvagGreen kit. […] PPIA was used as a reference gene to normalize quantitative RT-PCR. […]
# Nude mice = assay: In vivo bone formation by subcutaneous implantation of MSCs + HA/β-TCP biomaterial in Nude mice
# Description: For D. and F. conditions, mice also received regular injections (once a week) of either miPEP//125a-1 (D) or scramble miPEP (F) during the study. After 4 weeks, the mice are euthanized and the grafts were then isolated, fixed, included in methacrylate, cut and treated for histology. The cuts were scanned (NDPview) and bone formation (dark grey) is evaluated (A to F) and is also quantified (G) using the Fiji image analysis software and the total area of new bone is reported to the total area of the cut
# For G, the y-axis indicates the percentage of bone formation and the statistical analyzes were performed with the paired t-test (p-value: * p<0.05; ** p<0.01 and *** p<0.001).
# All experiments on animals were done in accordance with directive 2010/63/EU and after validation of protocols by the Animal Ethics Committee (Toulouse, N: 86/809 EEC). A total of 6-8 mice was used per group. The cells cultured osteo-induced or not according to the methods described elsewhere (see Example 1), were then suspended for 1 to 2 h in the culture medium also containing granules of biomaterials in the ratio of 2×10^6 cells/50 mg of biomaterial. These biomaterials were biphasic inorganic calcium phosphate (BCP), composed of hydroxyapatite (HA) and beta-tricalcium phosphate (β-TCP) in a ratio of 20/80, ranging in size from 0.5 to 1 mm (sold by Biomatlante, Vigneux de Bretagne, France). The porosity of these biomaterials (% vol) was 75±5% of pores of which 70% (0 to 10 μm), 20% (10 to 100 μm) and 10% (100 to 300 μm). They were sterilized by autoclaving.
# The biomaterial alone has been implanted as a negative control. Female Nude mice (RjOrl: NMRI-Foxnnul/Foxnlnu) (Laboratoires Janvier, Saint-Berthevin, France) are generally anesthetized by inhalationn of isoflurane. Two implants (cells+biomaterials) are subcutaneously placed in the back of the mice on each side of the spine. After 4 weeks, the treated animals are sacrificed. The implants are then removed and fixed in a buffered 4% formalin solution. Some groups of mice will also receive regular injections (once a week) during the study either of the miPEP//125a-1 (SEQ ID NO: 11 752) or the control miPEP (scramble ScmiPEP//125a, SEQ ID NO: 11 758).
# These implants were then decalcified in a solution of 4.13% EDTA/0.2% PFA in PBS for 96 hours at 50° C. using an automatic microwave for demineralization (KOS Histostation, Milestone Med. Corp. USA). The samples were dehydrated in ethanol and then butanol baths in an automatic dehydration apparatus (MicromMicrotech, Lyon, France). The samples were then immersed in paraphine (Histowax, Histolab, Gottenburg, Sweden). Fine sections ([…]) were made using a microtome (Leica RM2255, Leica Biosystems, Nanterre, France). The sections were stained by the Masson trichrome technique and the collagen in light green.
# The photos were obtained by a scan of each cut (NanoZoomer, Hamamatsu, Photonics, Hamamatsu City, Shizuoka, Japan) and observed virtually (NDP view, Hamamatsu). The histomorphometry of the images was done using the ImageJ software and the neoformed bone percentage was calculated by explant area. 3 to 4 sections per explant were analyzed and quantified.
# mesenchymal stem cells = assay: Expression of osteoblast marker genes (iBSP, PTHR1, STMN2, OSTERIX) in mesenchymal stem cells by quantitative RT-PCR; assay type: cell-based, human; details: for osteoblast differentiation of mesenchymal stem cells: conclusion from increased expression of osteoblast marker genes
# Description: The respective effects of miPEP 125a-1 and miPEP 145-2 on differentiation of mesenchymal stem cells were analyzed by measuring the expression of the iBSP, PTHR1, STMN2 and OSTERIX genes that correspond to markers of osteogenesis and of osteoblast differentiation (Chiellini et al., Biochem Biophys Res Commun, 374(1):64-8, 2008; Cordonnier et al., Tissue Eng, 17(3): 249-259, 2011).
# The experiments were carried out with two fragments of 10 amino acids respectively corresponding to the N-terminal part of the miPEP 125a-1 (=miPEP//125a-1 fragment) and to the N-terminal part of the miPEP 145-2 (=fragment miPEP//145-2).
# Mesenschymal stem cells from 4 different donors were cultured for 24 hours in PROLIF medium (αMEM+10% FCS) with or without miPEP//then for 3 days in DIF+BMP4 medium (αMEM+2% FCS+b-Glycerophosphate+Ascorbic acid+BMP4), DIF ΔBMP4 medium (αMEM+2% FCS+b-Glycerophosphate+Ascorbic acid) or PROLIF medium (αMEM+10% FCS), with or without miPEP//.
# The expression of the iBSP, PTHR1, STMN2 and OSTERIX genes was then measured in mesenchymal stem cells cultured in the presence or absence of a miPEP*.
# a. Composition of Culture Media • Proliferation medium (PROLIF): αMEM+10% FBS+1% P/S • Differentiation medium+BMP4 (DIF+BMP4): αMEM+2% FBS+1% P/S+βglycerophosphate (10 mM)+Ascorbic acid (50 μM)+BMP4 (50 ng/mL) • Differentiation medium without BMP4 (DIF ΔBMP4): αMEM+2% FBS+1% P/S+βglycerophosphate (10 mM)+Ascorbic acid (50 μM)
# The miPEP//145-2 was synthesized by Smartbioscience and dissolved at 2 mM in water. The miPEP//125a-1 was synthesized by Smartbioscience and dissolved in water+0.1% ammonium.
# The mesenchymal stem cells were seeded in 12-well plates at 70,000 cells/well in 1 mL of PROLIF medium. The cells were then incubated for 72 h at 37° C. in a humid atmosphere with 5% CO2.
# After 72 hours of incubation, the cells were pre-treated with 100 μM of miPEP or “scramble” peptide diluted in PROLIF medium, and then incubated at 37° C. for 24 hours. In parallel, cells treated with PROLIF±water or water+0.1% ammonium medium were used as a negative control.
# For 3 days, the cells were treated every 24 h with 100 μM of diluted miPEP either in DIF+BMP4 medium, or in DIF ΔBMP4 medium, or in PROLIF medium. Cells untreated or treated with water or water+0.1% ammonium were used as controls. The cells are incubated at 37° C.
# After 3 days of treatment, the culture supernatants were removed, the cell mats were washed once with PBS, and then the plates were frozen at −80° C. until the total RNAs were extracted.
# Total RNAs were extracted according to the supplier's recommendations with the miRNeasy microkit kit (Qiagen).
# The RNAs were reverse transcribed with the High Capacity cDNA reverse transcription kit (Applied Biosystem). 600 ng of RNA were added to 2 μL of RT buffer (10×), 2 μL of Random primer (10×), 0.8 μL of dNTPs (25×), 0.5 μL of RNAse OUT (40 U/μL) and 1 μL of multiscribe reverse transcriptase (50 U/μL) in a total volume of 20 μL. The reverse transcription reaction was carried out at 25° C. for 10 min and then 42° C. for 2 h. The activity of the enzyme was stopped by incubating the mixture at 85° C. for 5 min.
# The expression of osteoblastic transcription factors iBSP, PTHR1, STMN2 and OSTERIX was evaluated by quantitative RT-PCR with the SsoFast EvagGreen kit. For the RT-PCR reaction, 3 μL of […] diluted 1/8 were added to 1× of SsoFast EvaGreen, 10 μM of each primer and RNase free water in a final volume of 10 μL. The reaction was subjected to the following temperatures: 3 min pre-amplification at 95° C., 40 cycles of 10 sec at 95° C. and […] in a thermal cycler (CFX96 Real-time PCR detection system, Biorad). PPIA was used as a reference gene to normalize quantitative RT-PCR.
# For all PCR reactions, two replicates were used for each biological sample.
# [1] = DIF ΔBMP4 medium, 100 μM miPEP, 4 days, FIGS. 7 and 9
# [2] = DIF ΔBMP4 medium, 100 μM miPEP, 4 days, FIGS. 8 and 10
# [3] = DIF+BMP4 medium, 100 μM miPEP, 4 days, FIGS. 4 and 6
Substance,amount of miR 16-1 (miR16-1),"bone formation, quantified neoformed bone (Nude mice; MSCs only pre-treated in vitro (C) versus untreated MSCs (B), p=0.0241, FIG. 17G)","bone formation, quantified neoformed bone (Nude mice; MSCs pre-treated in culture (C) versus MSCs pre-treated with scramble miPEP (E), p=0.0499, FIG. 17G)","bone formation, quantified neoformed bone (Nude mice; MSCs pre-treated in vitro and then in vivo (D) versus untreated MSCs (B), p=0.0203, FIG. 17G)","bone formation, qualitative (histology images) (Nude mice; MSCs pre-treated with miPEP (FIG. 17C-D) versus scramble miPEP (FIG. 17E-F), 4 weeks)",ability of human MSCs to form bone in vivo (Nude mice; MSCs previously treated in vitro),"effect of in vivo injection of the miPEP on the induction of bone formation (Nude mice; pre-treated MSCs plus weekly injection (D) versus MSCs only pre-treated (C), FIG. 17G)",expression of the STMN2 gene (mesenchymal stem cells; [1]),expression of the OSTERIX gene (mesenchymal stem cells; [2]),"expression of the iBSP gene (mesenchymal stem cells; DIF+BMP4 medium, 100 μM miPEP, 4 days, FIG. 2)","expression of the PTHR1 gene (mesenchymal stem cells; DIF+BMP4 medium, 100 μM miPEP, 4 days, FIG. 3)","expression of the OSTERIX gene (mesenchymal stem cells; DIF+BMP4 medium, 100 μM miPEP, 4 days, FIG. 5)",expression of the STMN2 gene (mesenchymal stem cells; [3]),osteoblast differentiation of mesenchymal stem cells (mesenchymal stem cells),"expression of the STMN2 gene (mesenchymal stem cells; PROLIF medium, 100 μM miPEP, 4 days, FIG. 11)"
MFKHRFFYMH-YGRKKRRQRRR [miPEP//15a-16-1-TAT],increase,,,,,,,,,,,,,,
"MSLCLSPSLT [miPEP//125a-1, fragment of 10 amino acids corresponding to the N-terminal part of the miPEP 125a-1]",,significantly higher,significantly more bone formation,significantly higher,greater,increased,without consequence,increases,increases,increases,increases,increases,increases,promote osteoblast differentiation,
"MVGLNPPLWQ [miPEP//145-2, fragment of 10 amino acids corresponding to the N-terminal part of the miPEP 145-2]",,,,,,,,increases,increases,,,,increases,promote osteoblast differentiation,increases
